Results taken from US10517952B2, “Nucleophile-triggered degradable materials and methods of making and using the same” (GEORGIA TECH RESEARCH CORPORATION, priority 2014, dated 2019).

Key:
Type in all cases: physicochemical
[1] = Gelation of 4-PEG-SH with OND linkers, gelation time by inversion test; settings: neutral water, 17% DMSO, stoichiometric triethylamine added, room temperature
Procedure: PEG-OND hydrogels were prepared by mixing tetravalent thiol-terminated PEG (4-PEG-SH, Mw˜2,500 Da for each arm) at 3.5 weight percent and multivalent OND linkers at equimolar concentration of thiol and electrophile in phosphate buffer containing 7% DMSO by volume (FIG. 42). The reactions were mixed briefly and the gel was allowed to cure at temperature or 37° C. Gelation time was recorded as the point at which the sample no longer flowed upon inversion of the reaction vessel.
Trial gelations were performed by premixing a solution of linker 7a with four-armed thiol-terminated poly(ethylene glycol) (4-PEG-SH. Mn=10,000) in neutral water containing 17% DMSO by volume. The overall concentration of PEG macromer was varied from 0.4 wt % to 8.3 wt % while maintaining an equimolar ratio of thiol to electrophile. Under these conditions, no gels formed on standing at room temperature for five minutes.
Based on empirical observations made in these trials, subsequent gels were prepared at room temperature from 3.5 wt % 4-PEG-SH solutions in phosphate buffers containing 7% DMSO at equimolar concentrations of thiol and OND electrophile. Mixtures were mixed briefly with a vortex mixer, and the reaction vial was periodically tilted or inverted. Gelation time was recorded when the sample no longer flowed and was self-supporting. […] Gelation time at 37° C. was determined by pre-warming 4-PEG-SH macromer and OND stock solutions in a 37° C. water bath. Gel components were combined and mixed briefly by pipetting, and the sample was held in the water bath. Gelation time was determined by the inversion test, as described above.
The labeled protein solutions prepared as described in the previous section were diluted three-fold with pH 7.4 100 mM phosphate buffer and used to dissolve the 4-PEG-SH macromer at 3.76 wt %. This solution was used in an identical manner as pure 4-PEG-SH solution for the purpose of forming PEG-OND hydrogels (FIG. 45). All samples formed self-supporting hydrogels within 1 min after mixing, as determined by the inversion test.

[2] = Erosion of swollen hydrogels (BODIPY erosion probe, time-lapse photography); settings: poorly controlled BODIPY labeling protocol
Description: Degradation behavior of PEG-OND hydrogels under swelling conditions was investigated by labeling 3% of the 4-PEG-SH thiols with a BODIPY fluorophore via maleimide coupling before gelation. Gels prepared from this material are expected to have slightly lower crosslink densities and to degrade sooner when compared to gels formed without the erosion probe (FIG. 19). However, the probe-labeled macromer allowed convenient monitoring and comparison of erosion behavior under conditions relevant for biological applications. An increase in absorbance (504 nm) of the swelling buffer was observed as pieces containing the labeled PEG-thiol components were detached from the gel by rDA fragmentation (FIG. 2). […] Using combinations of linkers, it was possible to produce hydrogels with release profiles tuned between those of gels prepared from a single linker (FIG. 2C).
The 3.76 wt % solution of BODIPY-labeled 4-PEG-SH prepared above was used to form hydrogels using a method identical to unlabeled gels. Briefly, BODIPY-labeled 4-PEG-SH was combined with DMSO stocks of multivalent ONDs at equimolar concentration of thiol and electrophile. […] The absorbance of the supernatant at 504 nm was measured immediately to obtain a baseline measurement (t=0 hours), and the samples were placed into a 37° C. incubator. The absorbance of the swelling supernatant was monitored periodically by removal of 1 mL of buffer into a cuvette and measuring absorbance of the sample at 504 nm. […] This process was repeated for each sample until gel degradation was complete and the absorbance at 504 nm stabilized (100% dye released). In order to estimate the fraction of dye released from the non-degradable gel formed with bi s-EONB 8, a mock endpoint sample consisting of BODIPY-labeled 4-PEG-SH diluted to 3.5 wt % was prepared, and the absorbance at 504 nm was measured. […] The absorbance values collected over the course of the experiment were divided by the absorbance value measured after gel disintegration to obtain fractional dye release versus time. […]
The time at which the glass bead reached the bottom of the tube was recorded. […]

[3] = Oscillatory rheology of PEG-OND hydrogels; settings: pH 7.2, 37° C., strain 1%, 1 rad/sec, after 2-3 hours
Procedure: Oscillatory rheology was used to assess the viscoelastic properties of selected PEG-OND hydrogels. […] The truncated cone was then brought in contact with the bis-EONB/4-PEG-SH mixture before setting of the gel by positioning the tool at the measuring position. The sample was inspected for spillovers and trimmed as required. A preliminary preshearing step consisting of 30 seconds at 0.1% strain and ω=0.01 rad/s was performed to ensure good contact with the gel sample. The elastic (storage) and viscous (loss) moduli, G′ and G″, respectively, were then measured as a function of time for a constant strain of 1% and an angular frequency of 1 rad/sec. The ability to store energy is described by G′, while the amount of energy dissipated is related with G″. It was observed that the sample experienced a rapid transformation from an initial state in which G′ was not much larger than G″ to a state in which G′ was clearly predominant, as shown in FIG. 5; this is consistent with gelation. The observed transformation happened in the first few minutes after preparation, even when the hydrogel continued to rigidify for up to 2-3 hours.
The linear regime of this sample was determined by performing an oscillatory strain sweep at 37° C. The frequency sweep shown in the main text was thus performed in the linear region.
[…] In both experiments, G′>>G″.

Row | SMILES | 4-PEG-SH concentration giving instantaneous gelation [1] [wt %] | Dye released from gel made with multiply-labeled 4-PEG-SH macromer [2] | Storage modulus G′ versus loss modulus G″ [3]
1 | COC(=O)C1=C(C(=O)OC)C2(CNC(=O)CCCC(=O)NCC34C=CC(O3)C(C(=O)OC)=C4C(=O)OC)C=CC1O2 [Linker 7a, Tetramethyl 1,1′-((glutaroylbis(azanediyl))bis(methylene))bis(7-oxabicyclo[2.2.1]hepta-2,5-diene-2,3-dicarboxylate)] | > 2.5 | – | –
2 | COC(=O)C1=C(C(=O)OC)C2(CNC(=O)CCCC(=O)NCC34OC(C(C(=O)OC)=C3C(=O)OC)C3OC34)OC1C1OC12 (stereo not drawn) [Linker 8, Tetramethyl 1,1′-((glutaroylbis(azanediyl))bis(methylene))bis(3,8-dioxatricyclo[3.2.1.0^2,4]oct-6-ene-6,7-dicarboxylate)] | – | up to 50% | G″ was negligible in comparison with G′
